In ChEMBL document CHEMBL1201862, “PubChem BioAssay data set” (2004):
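Exposure lasted 48 hours, with cells grown in 96-well plates and compounds tested at five concentrations. GI50: concentration for 50% inhibition of growth.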 The source made the active and inactive calls. Cut-off read from the data, not from the text of the source: active = GI50 up to about 1.1 µM and inactive = higher.

What was measured:
Test in all cases: DTP human tumour cell line panel, 48 h
IGROV-1 = tested on: IGROV-1
HCC 2998 = tested on: HCC 2998
SNB-78 = tested on: SNB-78
RXF 393 = tested on: RXF 393
A549 = tested on: A549
SF-539 = tested on: SF-539
OVCAR-4 = tested on: OVCAR-4
Malme-3M = tested on: Malme-3M
K562 = tested on: K562
NCI-H23 = tested on: NCI-H23
SF-268 = tested on: SF-268
COLO 205 = tested on: COLO 205
HOP-92 = tested on: HOP-92
LOX IMVI = tested on: LOX IMVI
SW-620 = tested on: SW-620
SK-OV-3 = tested on: SK-OV-3
CCRF-CEM = tested on: CCRF-CEM
KM-20L2 = tested on: KM-20L2
LXFL 529 = tested on: LXFL 529
HOP-18 = tested on: HOP-18

Measured: GI50

C=CCN1C(=O)NC(=O)/C(=C/c2c3ccccc3cc3ccccc23)C1=O
inactive: IGROV-1 > 10 µM | HCC 2998 14.8 µM | SNB-78 21.1 µM | RXF 393 15.3 µM | A549 21 µM | SF-539 16.7 µM | OVCAR-4 22.2 µM | Malme-3M 18.6 µM | K562 20.8 µM | NCI-H23 > 10 µM | SF-268 24.5 µM | COLO 205 19.9 µM | HOP-92 20.4 µM | LOX IMVI 27.6 µM | SW-620 35.7 µM | SK-OV-3 29.9 µM | CCRF-CEM 26.3 µM

CN1Cc2ccccc2C2(COc3ccccc3C2=O)C1 (stereo not drawn)
inactive: KM-20L2 > 100 µM | IGROV-1 28.7 µM | HCC 2998 > 100 µM | SNB-78 > 100 µM | RXF 393 > 100 µM | A549 > 100 µM | SF-539 > 100 µM | OVCAR-4 92.3 µM | Malme-3M > 100 µM | K562 75.2 µM | NCI-H23 > 100 µM | SF-268 > 100 µM | HOP-92 20 µM | LOX IMVI > 100 µM | LXFL 529 76.6 µM | HOP-18 > 100 µM | SW-620 > 100 µM | SK-OV-3 > 100 µM | CCRF-CEM 74.3 µM

CC1=C(Cl)C=CP(=O)(Oc2ccccc2)C1 (stereo not drawn)
inactive: KM-20L2 > 100 µM | IGROV-1 > 100 µM | HCC 2998 > 100 µM | SNB-78 41.1 µM | A549 38.8 µM | OVCAR-4 > 100 µM | Malme-3M 44.5 µM | K562 > 10 µM | NCI-H23 45.7 µM | SF-268 29.1 µM | COLO 205 27.6 µM | HOP-92 > 100 µM | LOX IMVI 33 µM | LXFL 529 15.3 µM | HOP-18 23.1 µM | SW-620 39.4 µM | CCRF-CEM > 10 µM
